Data reported in patent publication US20090042905A1, “TRIAZOLE DERIVATIVES AS LIGANDS OF G-PROTEIN COUPLED RECEPTORS” (AETERNA ZENTARIS GmbH, priority 2007, published 2009).
Read-outs that look alike come from different tables or passages of the source.

Test system: male C57BL/6J mice
Assay: Fasting-induced feeding behavior (food intake) of mice
Type: in vivo
Settings: oral dose 2 μmol per mouse, 30 min before food
Experimental: The effectiveness of selected compounds of the invention on fasting-induced feeding behavior of mice was investigated.
The experiments were performed according to Asakawa A et al. (Asakawa A et al., Gut 2003, 52: 947-952) with the following technical details:
Preparation of compounds of the invention: dissolved in dimethylsulfoxide (DMSO) and then diluted in distilled water (i.e. 0.5, 1 and 10% DMSO for 0.5, 1 and 2 μmol/mouse, respectively);
Preparation of reference substance (positive control) sibutramine: dissolved in distilled water;
Control substance (negative vehicle control): 10% DMSO in distilled water (compounds of the invention); distilled water (sibutramine);
Route of administration: p.o.;
Pretreatment time: 30 min before presenting the food to the animals;
Volume of administration: 0.5 ml/mouse;
Animals: male C57BL/6J mice;
Body weight range: 18.3-21.4 g

[1] = 20 min, read-out: change of food intake - compounds versus vehicle treated negative control, at 20 min
[2] = 1 h, read-out: change of food intake - compounds versus vehicle treated negative control, at 1 h
[3] = 2 h, read-out: change of food intake - compounds versus vehicle treated negative control, at 2 h
[4] = 4 h, read-out: change of food intake - compounds versus vehicle treated negative control, at 4 h

Structure (SMILES)	change in vivo at 2 µmol/mouse [1]	change in vivo at 2 µmol/mouse [2]	change in vivo at 2 µmol/mouse [3]	change in vivo at 2 µmol/mouse [4]
COc1ccc(Cn2c(CCc3ccccc3)nnc2[C@@H](Cc2c[nH]c3ccccc23)NC(=O)c2cnccn2)c(OC)c1 [Compound 66, (R)-N-(1-(4-(2,4-dimethoxybenzyl)-5-phenethyl-4H-1,2,4-triazol-3-yl)-2-(1H-indol-3-yl)ethyl)pyrazine-2-carboxamide]	-56%	-40%	-45%	-51%
CC(C)(N)C(=O)N[C@H](Cc1c[nH]c2ccccc12)c1nnc(CCc2ccccc2)n1CCc1ccccc1 [Compound 117, (R)-N-(1-(4,5-diphenethyl-4H-1,2,4-triazol-3-yl)-2-(1H-indol-3-yl)ethyl)-2-amino-2-methylpropanamide]	-31%	-24%	-11%	-6%
CC(C)(N)C(=O)N[C@H](Cc1c[nH]c2ccccc12)c1nnc(CCc2c[nH]c3ccccc23)n1Cc1ccc(Cl)c(Cl)c1 [Compound 28, (R)-N-(1-(5-(2-(1H-indol-3-yl)ethyl)-4-(3,4-dichlorobenzyl)-4H-1,2,4-triazol-3-yl)-2-(1H-indol-3-yl)ethyl)-2-amino-2-methylpropanamide]	-17%	-28%	-21%	-18%
COc1ccc(Cn2c(CCc3ccccc3)nnc2[C@@H](Cc2c[nH]c3ccccc23)NC(=O)[C@@H]2CCCCN2)cc1 [Compound 48, (S)-N-((R)-1-(4-(4-methoxybenzyl)-5-phenethyl-4H-1,2,4-triazol-3-yl)-2-(1H-indol-3-yl)ethyl)piperidine-2-carboxamide]	-22%	-30%	-27%	-21%
CC(C)(N)C(=O)N[C@H](Cc1c[nH]c2ccccc12)c1nnc(CCc2ccccc2)n1Cc1cccc2ccccc12 [Compound 27, (R)-N-(2-(1H-indol-3-yl)-1-(4-(naphthalen-1-ylmethyl)-5-phenethyl-4H-1,2,4-triazol-3-yl)ethyl)-2-amino-2-methylpropanamide]	-57%	-58%	-48%	-38%
COc1ccc(Cn2c(CCc3ccccc3)nnc2[C@@H](Cc2c[nH]c3ccccc23)NC(=O)C(C)(C)N)c(OC)c1 [Compound 179, N-((R)-1-(4-(2,4-dimethoxybenzyl)-5-phenethyl-4H-1,2,4-triazol-3-yl)-2-(1H-indol-3-yl)ethyl)-2-amino-2-methylpropanamide]	-25%	-39%	-40%	-38%
CC(C)(N)C(=O)N[C@H](Cc1c[nH]c2ccccc12)c1nnc(CCCc2c[nH]c3ccccc23)n1Cc1cccc2ccccc12 [Compound 11, (R)-N-(1-(5-(3-(1H-indol-3-yl)propyl)-4-(naphthalen-1-ylmethyl)-4H-1,2,4-triazol-3-yl)-2-(1H-indol-3-yl)ethyl)-2-amino-2-methylpropanamide]	-56%	-65%	-55%	-55%
CC(C)(N)C(=O)N[C@H](Cc1c[nH]c2ccccc12)c1nnc(CCc2ccccc2)n1Cc1ccc(Cl)c(Cl)c1 [Compound 122, (R)-N-(1-(4-(3,4-dichlorobenzyl)-5-phenethyl-4H-1,2,4-triazol-3-yl)-2-(1H-indol-3-yl)ethyl)-2-amino-2-methylpropanamide]	-52%	-42%	-28%	-16%
O=C(N[C@H](Cc1c[nH]c2ccccc12)c1nnc(CCc2ccccc2)n1-c1ccccc1)C1CCNCC1 [Compound 142, N-((R)-2-(1H-indol-3-yl)-1-(5-phenethyl-4-phenyl-4H-1,2,4-triazol-3-yl)ethyl)piperidine-4-carboxamide]	-56%	-57%	-55%	-49%
COc1ccc(Cn2c(CCc3c[nH]c4ccccc34)nnc2[C@@H](Cc2c[nH]c3ccccc23)NC(=O)[C@@H]2C=CCN2)cc1 [Compound 190, (2S)-N-((R)-1-(5-(2-(1H-indol-3-yl)ethyl)-4-(4-methoxybenzyl)-4H-1,2,4-triazol-3-yl)-2-(1H-indol-3-yl)ethyl)-2,5-dihydro-1H-pyrrole-2-carboxamide]	-39%	-30%	-33%	-30%
COc1ccc(Cn2c(CCc3ccccc3)nnc2[C@@H](Cc2c[nH]c3ccccc23)NC(=O)C2CCNCC2)c(OC)c1 [Compound 62, (R)-N-(1-(4-(2,4-dimethoxybenzyl)-5-phenethyl-4H-1,2,4-triazol-3-yl)-2-(1H-indol-3-yl)ethyl)piperidine-4-carboxamide]	56%	68%	50%	26%
COc1ccc(Cn2c(CCc3c[nH]c4ccccc34)nnc2[C@@H](Cc2c[nH]c3ccccc23)NC(=O)C2CCNCC2)c(OC)c1 [Compound 31, (R)-N-(1-(5-(2-(1H-indol-3-yl)ethyl)-4-(2,4-dimethoxybenzyl)-4H-1,2,4-triazol-3-yl)-2-(1H-indol-3-yl)ethyl)piperidine-4-carboxamide]	50%	20%	16%	9%
Cc1ccc(Cn2c(CCc3ccccc3)nnc2[C@@H](Cc2c[nH]c3ccccc23)NC(=O)C(C)(C)N)cc1 [Compound 37, (R)-N-(1-(4-(4-methylbenzyl)-5-phenethyl-4H-1,2,4-triazol-3-yl)-2-(1H-indol-3-yl)ethyl)-2-amino-2-methylpropanamide]	-37%	-49%	-51%	-34%
CC(C)(N)C(=O)N[C@H](Cc1c[nH]c2ccccc12)c1nnc(Cc2ccccc2)n1Cc1ccc(Cl)c(Cl)c1 [Compound 118, (R)-N-(1-(4-(3,4-dichlorobenzyl)-5-benzyl-4H-1,2,4-triazol-3-yl)-2-(1H-indol-3-yl)ethyl)-2-amino-2-methylpropanamide]	-31%	-30%	-25%	-24%
CC(C)(N)C(=O)N[C@H](Cc1c[nH]c2ccccc12)c1nnc(CCc2c[nH]c3ccccc23)n1Cc1cccc2ccccc12 [Compound 5, (R)-N-(1-(5-(2-(1H-indol-3-yl)ethyl)-4-(naphthalen-1-ylmethyl)-4H-1,2,4-triazol-3-yl)-2-(1H-indol-3-yl)ethyl)-2-amino-2-methylpropanamide]	-56%	-58%	-53%	-51%
COc1ccc(Cn2c(CCc3c[nH]c4ccccc34)nnc2[C@@H](Cc2c[nH]c3ccccc23)NC(=O)C2CCNCC2)cc1 [Compound 45, (R)-N-(1-(5-(2-(1H-indol-3-yl)ethyl)-4-(4-methoxybenzyl)-4H-1,2,4-triazol-3-yl)-2-(1H-indol-3-yl)ethyl)piperidine-4-carboxamide]	-36%	-28%	-33%	-34%
COc1ccc(Cn2c(CCc3ccccc3)nnc2[C@@H](Cc2c[nH]c3ccccc23)NC(=O)[C@H]2CCCCN2)cc1 [Compound 49, (R)-N-((R)-1-(4-(4-methoxybenzyl)-5-phenethyl-4H-1,2,4-triazol-3-yl)-2-(1H-indol-3-yl)ethyl)piperidine-2-carboxamide]	-59%	-48%	-39%	-23%
